# Reference: US8298781B2, “Compositions and methods for characterizing and regulating olfactory sensation” (Duke University, priority 2007, dated 2012)
# Changes are numbered by the printed parent chain.
# Key:
# OR7D4 WM = molecular target: T1, OR7D4 WM (Homo sapiens, UniProt Q8NG98, R88W/T133M); test: Luciferase assay of odorant receptor activation in Hana3A cells, OR7D4 WM; type: cell-based; details: variant R88W/T133M, relative to OR7D4 RT
# T1 construct: expressed in transfected cells; host or cells: Hana3A (HEK293T-derived)
# T1 sequence (Q8NG98 1-312 R88W/T133M): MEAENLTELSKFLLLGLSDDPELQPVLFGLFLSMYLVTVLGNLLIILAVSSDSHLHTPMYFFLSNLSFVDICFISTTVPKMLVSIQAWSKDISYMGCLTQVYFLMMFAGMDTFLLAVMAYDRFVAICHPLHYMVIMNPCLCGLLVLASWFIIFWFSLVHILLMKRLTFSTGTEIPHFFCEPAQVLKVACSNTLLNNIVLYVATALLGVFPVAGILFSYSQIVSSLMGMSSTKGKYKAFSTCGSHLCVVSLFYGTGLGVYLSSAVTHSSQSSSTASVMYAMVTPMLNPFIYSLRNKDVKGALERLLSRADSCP
# From the text: (§1) Heterologous expression of human odorant receptors. 423 human odorant receptors including 337 predicted functional receptors were cloned. Odorant receptors that contained the first 20 amino acid of human rhodopsin (see, e.g., Krautwurst, D., et al., Cell 95, 917-926 (1998); herein incorporated by reference in its entirety) in pCl (Promega) were expressed in the Hana3A cell line along with a short form of mRTP1, RTP1S, (M37 to the C-terminal end), which enhanced functional expression of the odorant receptors. For immunocytochemistry, cells were fixed, permeabilized and incubated with monoclonal anti-rhodopsin antibody, 4D2 (see, e.g., Laird, D. W., et al., Invest Opthalmol Vis Sci 29.419428 (1988); herein incorporated by reference in its entirety), followed by Cy3-conjugated donkey anti-mouse IgG (Jackson Immunologicals). […]
# (§2) Luciferase assay and data analysis. […] Luminescence was measured using Wallac Victor 1420 (Perkin-Elmer). Normalized luciferase activity was calculated by the formula [luc(N)-luc(lowest)]/luc(highest)/RL (N) where luc(N)=luminescence of luciferase of a certain well; luc(lowest)=lowest luminescence of luciferase of a plate or a set of plates; luc(highest)=highest luminescence of luciferase of a plate or a set of plates; RL(N)=luminescence of Renilla luciferase of a certain well. Data was analyzed with Microsoft Excel and GraphPad Prism 4.
# OR7D4 RT = molecular target: T2, OR7D4 RT (Homo sapiens, UniProt Q8NG98); test: Luciferase assay of odorant receptor activation in Hana3A cells, OR7D4 RT; type: cell-based; set-up: dose or concentration left out as unconfirmed; details: for response of OR7D4 RT (normalized luciferase), ligand specificity panel: panel of 66 odors and 2 solvents at or 1,130,000 dilution
# T2 construct: expressed in transfected cells; host or cells: Hana3A (HEK293T-derived)
# T2 sequence (Q8NG98 1-312): T1 sequence (Q8NG98 1-312 R88W/T133M) with W88R, M133T
# From the text: as §1, with “Immunologicals). For FACS analysis, PE-conjugated donkey anti-mouse IgG (Jackson Immunologicals) was used. Western blot analysis was performed according to Mini-Protean 2 Cell (Bio-Rad) protocol. ECL (Amersham) was used for detecting proteins on membranes. After the initial exposure, the membrane was incubated with stripping buffer (25 mM Glycine-HCl [pH2], 1% SDS, 25 mM Glycine, 0.036N HCl, 1% SDS) and incubated with rabbit anti-GFP (Invitrogen). Luciferase assays were performed as described (see, e.g., Saito, H., et al., Cell 119:679-691 (2004); incorporated herein by reference in its entirety).” for “Immunologicals).”
# as §2
Compound,function of OR7D4 WM in vitro in the presence of the odor (OR7D4 WM),"response of OR7D4 RT (normalized luciferase), ligand specificity panel (OR7D4 RT)","response of OR7D4 in screen of human odorant receptor panel (OR7D4 RT; Hana3A cells, 337 human odorant receptors, stimulated with androstenone)"
"C[C@@]12C=CC[C@H]1[C@@H]1CCC3=CC(=O)CC[C@]3(C)[C@H]1CC2 [androstadienone, androsta-4,16-dien-3-one]",severely impaired olfactory function,responded selectively,
"C[C@]12CCC(=O)C[C@@H]1CC[C@@H]1[C@@H]2CC[C@]2(C)C=CC[C@@H]12 [androstenone, 5α-androst-16-en-3-one]",severely impaired olfactory function,responded selectively,robust responses
